Reference: ChEMBL document CHEMBL1129217, “Synthesis and pharmacology of the 1,2-dimethylheptyl-8-THC isomers: exceptionally potent cannabinoids” (Bioorg Med Chem Lett, 1997)

What was measured:
[1] = test system: Mus musculus; test: The compound was evaluated in vivo for spontaneous activity(SA) in a mouse model; type: functional
[2] = test system: Mus musculus; test: The compound was evaluated in vivo for hypothermia(as rectal temperature) in a mouse model; type: functional
[3] = test system: Mus musculus; test: The compound was evaluated in vivo for antinociception (TF) activity in a mouse model; type: functional
[4] = target: Cannabinoid receptor (Homo sapiens, UniProt P34972+P21554); test: The affinity of compound for the cannabinoid brain receptor was determined by measuring its ability to displace [3H]CP-55940 from its binding site in a membrane preparation; type: cell membranes

| Compound | ED50 [1] [µmol/kg] | ED50 [2] [µmol/kg] | ED50 [3] [µmol/kg] | Ki [4] [nM] |
| --- | --- | --- | --- | --- |
| CCCCCCC(C)(C)c1cc(O)c2c(c1)OC(C)(C)[C@@H]1CC=C(CO)C[C@@H]21 | 0.01 | 0.05 | 0.02 | – |
| CC1=CC[C@@H]2[C@H](C1)c1c(O)cc(C(C)C(C)C3CCCC3)cc1OC2(C)C (stereo partly specified) | 0.04 | 0.07 | 0.1 | 0.6 |
| CC1=CC[C@@H]2[C@@H](C1)c1c(O)cc(C(C)C(C)C3CCCC3)cc1OC2(C)C (stereo partly specified) | 0.45 | 0.63 | 0.42 | 0.84 |
| CC1=CC[C@H]2[C@H](C1)c1c(O)cc(C(C)C(C)C3CCCC3)cc1OC2(C)C (stereo partly specified) | 0.12 | 0.19 | 0.18 | 0.81 |
| CC1=CC[C@H]2[C@@H](C1)c1c(O)cc(C(C)C(C)C3CCCC3)cc1OC2(C)C (stereo partly specified) | 0.03 | 0.07 | 0.03 | 0.46 |
| CCCCCCC(C)(C)c1cc(O)c2c(c1)OC(C)(C)[C@@H]1CC=C(C)C[C@@H]21 | 0.27 | 0.15 | 0.14 | 0.77 |
| CCCCCc1cc(O)c2c(c1)OC(C)(C)[C@@H]1CC=C(C)C[C@@H]21 [DELTA-8-TETRAHYDROCANNABINOL] | 2.9 | 4.8 | 4.5 | – |
